This is an account of results in patent publication EP0533084A1, “Pharmaceutical compositions comprising natriuretic peptides or neutral endopeptidase inhibitors for treating and preventing myointimal proliferation” (SCHERING CORPORATION, priority 1991, dated 1993).

The test system of this assay is carotid artery intimal proliferation. As to the kind of experiment: balloon catheter injury of the left carotid artery in spontaneously hypertensive rats; morphometric and DNA analyses of intimal proliferation 14 days post-injury. The format is in vivo, male spontaneously hypertensive rats. The note with it: SHR, means ± SEM. As for the experimental part: Briefly, rats were anesthetized with Metofane (methoxyflurane) and a 2 Fr Fogarty embolectomy catheter was inserted into the left external carotid artery. The catheter was advanced 5 cm, inflated and retracted 3 times, turning the catheter 90^o each time. […] Animals were autopsied following exsanguination with ketamine (40 mg/kg) plus xylazine (10 mg/kg) i.m. anesthesia at specified timepoints following balloon injury.
Standard samples of the control right and balloon injured left carotid arteries were taken for DNA and morphometric analyses. […] The DNA results were expressed as the ratio of the left or ballooned carotid to the right control carotid. Three samples were taken for histology at 2.5 mm intervals cephalad from the DNA sample from each carotid artery and fixed in 4% paraformaldehyde containing 10% sucrose (wt/vol). Paraffin-embedded sections were stained with the Gomori trichrome-aldehyde fuchsin stain and computer-assisted morphometric analyses were performed using a Bioquant System IV image analyzer (R&M Biometrics Inc.). Morphometric measurements included: maximal intimal thickness (mm), intimal cross sectional area (mm²), and intimal cross sectional area/medial cross sectional area. […]

The mark [1] stands for this setting: Exp. 5A, 10 mpk once a day, control see Exp. 1A.

As to `CC1(C)OCC(COC(=O)[C@H](Cc2ccccc2)N[C@@H](Cc2ccccc2)C(=O)NCCC(=O)O)O1` (stereo partly drawn) [compound A, N-[N-[(L)-[1-[(2,2-dimethyl-1,3-dioxolan-4-yl)methoxy]carbonyl]-2-phenylethyl]-L-phenylalanyl]-ß-alanine], for the setting “Exp. 1, 90 mpk b.i.d.”, the “Carotid DNA (ballooned/ control)” value amounted to 3.16 ±0.35, the “Intimal Area” value is reported as 0.99 ±0.010 mm^2, the “Intimal Area/ Medial Area” value worked out at 0.653 ±0.067 and the “Maximal Intimal Thickness” value worked out at 0.104 ±0.011 mm. For the same molecule, where the note is “Exp. 1A, 90 mpk b.i.d.”, the “Carotid DNA (ballooned/ control)” value turned out to be 4.60 ±0.67, the “Intimal Area” value is 0.099 ±0.010 mm^2, the “Intimal Area/ Medial Area” value was 0.692 ±0.066 and the “Maximal Intimal Thickness” value was determined as 0.110 ±0.010 mm.

In the case of `CCOC(=O)[C@H](CCSC)NC(=O)C(CSC(C)=O)Cc1ccccc1C` (stereo partly drawn) [compound B, N-[2-acetylthiomethyl-3-(2-methylphenyl)-propionyl]-methionine ethyl ester], under “Exp. 2, 30 mpk b.i.d.”, the “Carotid DNA (ballooned/ control)” value is given as 3.47 ±0.40, the “Intimal Area” value was 0.071 ±0.010 mm^2, the “Intimal Area/ Medial Area” value was 0.441 ±0.052 and the “Maximal Intimal Thickness” value is on record as 0.085 ±0.009 mm. For the same molecule, under “Exp. 2A, 10 mpk b.i.d.”, the “Carotid DNA (ballooned/ control)” value was found to be 3.12 ±0.22, the “Intimal Area” value is on record as 0.106 ±0.010 mm^2, the “Intimal Area/ Medial Area” value is 0.719 ±0.062 and the “Maximal Intimal Thickness” value stood at 0.112 ±0.012 mm. For the setting “Exp. 4, 10 mpk b.i.d.”, the “Carotid DNA (ballooned/ control)” value came out at 4.38 ±0.73, the “Intimal Area” value is on record as 0.085 ±0.009 mm^2, the “Intimal Area/ Medial Area” value is reported as 0.592 ±0.067 and the “Maximal Intimal Thickness” value is reported as 0.095 ±0.012 mm.

As to `CCOC(=O)[C@H](CCc1ccccc1)N[C@@H](C)C(=O)N1CC2(C[C@H]1C(=O)O)SCCS2` [compound D, spirapril, reference compound], under setting [1], the “Carotid DNA (ballooned/ control)” value is 1.94 ±0.32, the “Intimal Area” value is recorded as 0.064 ±0.005 mm^2, the “Intimal Area/ Medial Area” value amounted to 0.500 ±0.049 and the “Maximal Intimal Thickness” value worked out at 0.082 ±0.010 mm.
